From US11673925B2, “Oligopeptide with anti-inflammatory activity, preparation method, and application thereof” (NANJING UNIVERSITY OF FINANCE AND ECONOMICS, priority 2021, dated 2023)
Where a SMILES comes first, the peptide text is derived from it.

System: RAW 264.7 normal macrophages
Format: cell-based
Text: (4) detection of effects of respective components (WGPH-I, WGPH-II, and WGPH-III) on the proliferation activity of RAW 264.7 normal macrophages by a methyl thiazolyl tetrazolium (MTT) assay
RAW 264.7 macrophages in a logarithmic growth phase are taken and prepared into a cell suspension of 3×10^4 cells/mL in a RPIM 1640 culture medium containing 10% FBS. Sample wells are set in a 96-well plate (also referred to as 96-well tissue culture plates), and 100 microliters (μL) of cell suspension are added to each sample well, and the cells are cultured in a cell incubator for 12 h to make the cells adhere to the wall. After removing the culture medium in the sample wells, different components WGPH-I (>3 kDa), WGPH-II (1˜3 kDa), and WGPH-III (<1 kDa) are dissolved in RPIM 1640 culture medium containing 10% FBS to prepare different concentrations of oligopeptide culture medium (0, 50, 100, 200, and 300 μg/mL) respectively, and then added to respective sample wells, 100 μL per well. A blank well is set, and compared with the sample wells, there is no cell, with 100 μL PBS instead of the oligopeptide culture medium. A control well is set, compared with the sample wells, there is cells, with 100 μL PBS instead of oligopeptide culture medium. […] The absorbance is measured at a wavelength of 570 nanometers (nm) in the microplate reader. […]

C[C@H](N)C(=O)N1CCC[C@H]1C(=O)N[C@@H](CCC(=O)O)C(=O)N1CCC[C@H]1C(=O)N[C@@H](CCC(=O)O)C(=O)N1CCC[C@H]1C(=O)N[C@@H](C)C(=O)N[C@@H](Cc1ccccc1)C(=O)O [oligopeptide] (H-APEPEPAF-OH)
effect on the proliferation activity of macrophages: no effect
